Laboratory results taken from the supplement of paper PMC10307832.

Columns and labels:
Experiment in all cases: relative viability (nuclei count vs DMSO), 5 days (fraction); higher = more cells survive
IU1-47 + Pemetrexed = compound: CC1=CC(=C(N1C2=CC=C(C=C2)Cl)C)C(=O)CN3CCCCC3 [IU1-47] + Nc1nc2[nH]cc(CCc3ccc(C(=O)N[C@@H](CCC(=O)O)C(=O)O)cc3)c2c(=O)[nH]1 [Pemetrexed] (partner 0.2 µM)
Outline: (§1)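 Cells from lung cancer lines were seeded into 1536-well plates and, one day later, dosed by pin tool. Treatments were either a single drug or a fixed dose of an anchor drug with five library-drug doses (not always all listed) in √10 steps. After 5 days, nuclei were stained in a one-step fixation (final 0.05% Triton X-100, 1% formaldehyde, 1 ug/ml Hoechst) and counted on 4× images, and relative viability is the treated-to-vehicle nuclei ratio, as the median of duplicate plates.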

IU1-47 + Luminespib = compound: CC1=CC(=C(N1C2=CC=C(C=C2)Cl)C)C(=O)CN3CCCCC3 [IU1-47] + CCNC(=O)c1noc(-c2cc(C(C)C)c(O)cc2O)c1-c1ccc(CN2CCOCC2)cc1 [Luminespib] (partner 0.01 µM)
Outline: as §1

IU1-47 + Crizotinib = compound: CC1=CC(=C(N1C2=CC=C(C=C2)Cl)C)C(=O)CN3CCCCC3 [IU1-47] + C[C@@H](Oc1cc(-c2cnn(C3CCNCC3)c2)cnc1N)c1c(Cl)ccc(F)c1Cl [Crizotinib] (partner 1 µM)
Outline: as §1

FG-4592 + OSI-027 = compound: Cc1nc(C(=O)NCC(=O)O)c(O)c2ccc(Oc3ccccc3)cc12 [FG-4592] + COc1cccc2cc(-c3nc([C@H]4CC[C@H](C(=O)O)CC4)n4ncnc(N)c34)[nH]c12 [OSI-027] (partner 0.5 µM)
Outline: as §1

Cell Line	relative viability (IU1-47 + Pemetrexed; first compound 0.08 µM)	relative viability (IU1-47 + Pemetrexed; first compound 0.253 µM)	relative viability (IU1-47 + Pemetrexed; first compound 0.8 µM)	relative viability (IU1-47 + Pemetrexed; first compound 2.53 µM)	relative viability (IU1-47 + Pemetrexed; first compound 8 µM)	relative viability (IU1-47 + Luminespib; first compound 0.08 µM)	relative viability (IU1-47 + Luminespib; first compound 0.253 µM)	relative viability (IU1-47 + Luminespib; first compound 0.8 µM)	relative viability (IU1-47 + Luminespib; first compound 8 µM)	relative viability (IU1-47 + Crizotinib; first compound 0.08 µM)	relative viability (IU1-47 + Crizotinib; first compound 0.253 µM)	relative viability (IU1-47 + Crizotinib; first compound 0.8 µM)	relative viability (IU1-47 + Crizotinib; first compound 8 µM)	relative viability (FG-4592 + OSI-027; first compound 0.08 µM)	relative viability (FG-4592 + OSI-027; first compound 0.253 µM)	relative viability (FG-4592 + OSI-027; first compound 0.8 µM)	relative viability (FG-4592 + OSI-027; first compound 2.53 µM)	relative viability (FG-4592 + OSI-027; first compound 8 µM)	relative viability (IU1-47 + Crizotinib; first compound 2.53 µM)	relative viability (IU1-47 + Luminespib; first compound 2.53 µM)
201T	0.458	0.386	0.317	0.261	0.389	1.1	1.08	1.15	1.07	1.08	1.04	1.05	1.04	0.683	0.662	0.738	0.815	0.704		
A549										0.685	0.847	0.607	0.579						0.612	
A-427	1.06	1	0.993	1	0.937	0.999	0.89	0.971	0.872	1.04	0.938	0.944	0.634	0.479	0.393	0.506	0.423	0.598		1.04
ABC-1						0.957	1.01	1.02	0.733	1.12	1.13	0.796	0.8	0.548	0.482	0.47	0.501	0.4		
BEN	0.732	0.765	0.899	0.523	0.674	0.362	0.459	0.414	0.344	0.841	0.99	1.03	0.752	0.222	0.287	0.315	0.313	0.299	0.816	
CAL-12T	1.2	1.39	1.15	1.34	1.04	0.878	0.291	0.363	0.495	0.689	0.713	0.479	0.518	0.829	0.663	0.642	0.49	0.333	0.839	0.438
COR-L23	0.212	0.18	0.199	0.195	0.208	0.836	0.85	0.71	0.675	0.735	0.704	0.669	0.609	0.798	0.617	0.793	0.701	0.468	0.817	0.817
COR-L 105	1.12	1.17	0.93	1.12	1.02	0.775	0.673	1	0.696	0.793	0.839	0.767	0.627	0.555	0.602	0.767	0.551	0.435	0.94	0.809
Calu-6										0.838	0.829	0.692	0.665						1.02	
ChaGo-K-1	0.26	0.257	0.282	0.249	0.268	0.623	0.618	0.713	0.703	1.04	1.21	1.24	0.954	0.577	0.545	0.532	0.471	0.413	1.31	0.671
EBC-1										0.239	0.202	0.209	0.229						0.172	
EKVX	0.407	0.406	0.423		0.453	1.01	1.05	0.881	0.978	0.981	1.14	1.05	0.793	0.626	0.649	0.718	0.663	0.73	0.892	1.02
EMC-BAC-2	0.458	0.436	0.556	0.459	0.468	1.4	1.32	1.28	0.93	0.802	0.863	0.752	0.75	0.338	0.407	0.339	0.333	0.344	0.835	1.26
EPLC-272H	0.332	0.422	0.316	0.327	0.313	0.382	0.261	0.221	0.315	0.957	0.918	0.862	0.984	0.348	0.206	0.285	0.29	0.232		
H3255	0.624	0.544	0.63	0.605	0.511	1.09	1	0.757	0.888	0.989	1.07	0.908	0.807	0.573	0.576	0.626	0.617	0.62	0.778	0.41
HARA	0.258		0.199	0.26	0.22	0.858	0.98	1.66	0.49	0.945	1.17	1.29	0.719	0.334	0.335	0.434	0.392	0.234	1.12	
HCC-15	0.229	0.219	0.226	0.218	0.228	0.442	0.379	0.389	0.358	0.949	0.879	0.908	0.704	0.626	0.626	0.674	0.614	0.701	0.825	
HCC-44	0.706	0.685	0.647	0.668	0.696	1.17	1.03	1.11	1.21	0.801	0.784	0.809	0.799	0.504	0.489		0.476	0.377	0.77	0.987
HCC-78	0.898	0.889	0.929	0.865	0.862					0.334	0.358	0.336	0.386	0.346	0.307	0.406	0.357	0.362	0.324	
